In data set [1] the test system is Acanthamoeba. Kind of data set: patients with Acanthamoeba keratitis treated with systemically administered (oral) miltefosine. It counts as in vivo, human. From the text:
Such infections have typically been hard to treat as the standard topical treatments generally don't permeate through the various tissue layers to the cysts of the amoeba. […] Previous treatment protocols for Acanthamoeba keratitis have only included topically applied agents such as biocides, and it is not clear from reported results whether cyst reduction was present at the end of these treatment protocols. Moreover, prior to 1996, every patient diagnosed with Acanthamoeba keratitis eventually lost the infected eye.
Since AK is commonly misdiagnosed, the stage of the disease when it is successfully identified varies greatly. […] A major advantage of the presently disclosed methods is that such patients could receive steroids after surgery while also receiving either or both of the systemic and topical formulations of miltefosine, and optional additional second agents.
Medication was discontinued for one week, during which time the patient experienced renewed symptoms.

In data set [2] the test system is Naegleria fowleri. As to conditions: Naegleria fowleri in the laboratory; cited from earlier work.
Data set [3] has as its system Naegleria fowleri. The settings on record: Mexico, Arkansas, and Florida patients; cited from earlier work.
The conditions of data set [4]: in vivo; cited from earlier work.
The nature of data set [5]: solubility of miltefosine. The data set is classed as physicochemical. From the text:
The chemical name of miltefosine is 2-[[(hexadecyloxy)hydroxyphosphenyl]oxy]-N,N,N-trimethylethylammonium inner salt, also known as hexadecylphosphocholine, represented by the formula (I). The empirical formula is C21H46NO4P, yielding a molecular weight of 407.57 g/mol.
Thus, according to certain aspects of the presently disclosed invention, the miltefosine may be administered as an oral formulation that is a liquid, such as included in a liquid capsule that may be swallowed, or as a formulation that a patient may drink. The miltefosine may be applied directly to body tissues such as skin or cornea. Alternatively, the miltefosine may be formulated as a solution that may be administered intravenously, such as formulated in a sterile saline solution.

Data set [6] has as its system Acanthamoeba. The settings on record: topical administration, 160 μM, 28 days treatment; hamsters exposed to Acanthamoeba for 5 days; cited from earlier work.

“2-[[(hexadecyloxy)hydroxyphosphenyl]oxy]-N,N,N-trimethylethylammonium inner salt [miltefosine]”: the “efficacy against Acanthamoeba keratitis, active feeding amoeba and cysts in the eyes” value in the data set with Acanthamoeba [1] (oral formulation, over eighty patients, more than a third treated for at least two months) is “effective to treat Acanthamoeba keratitis and was able to kill both active feeding amoeba and cysts in the eyes”. Besides, the “outcome of case study (AK infection)” value in the data set with Acanthamoeba [1] (patient, oral 50 mg TID just over a month, then 50 mg BID for an additional two months, with short course of oral steroids) is on record as “clear the AK infection”. Further, in the data set with Naegleria fowleri [2], the amoeba-killing activity entry is “amoeba-killing activity”. The “survival of PAM patients” value in the data set on Naegleria fowleri [3] is “survived”. Besides, the half-life result in data set [4] was “long half-life”. Besides, the solubility result in data set [5] (aqueous solutions) is “freely soluble”; in data set [5] (water, 0.1 N HCl or NaOH, methanol, and ethanol), “freely soluble”. For the same substance, the “complete cure of hamsters” value in the data set with Acanthamoeba [6] is given as 85%.
